Test results from US20150366788A1, “[…] EXTRACTS AND METHODS OF USE” (AVON PRODUCTS, INC, priority 2013, published 2015).

Test system: dorsal forearm skin of healthy female Caucasian subjects
Test: In vivo biopsy (forearm patch, histology endpoints)
Parameters: species or system human
Details: 0.05% active (positive control), semi-occlusion patch, 3 weeks
Experimental: Healthy female Caucasian subjects aged 30-65, with skin type II or III and mild to moderate photo damage, were treated on the dorsal forearm for 3 weeks (3 consecutive rounds of 5×24 hour) under semi-occlusion patches. Test articles including active ingredients, vehicle controls, and retinol were applied in a randomized allocation on 6 sites on each forearm. The application dose was 2 mg/cm^2. After 3 week treatment, a 2 mm punch biopsy was obtained from each treatment site and fixed in 10% buffered formalin. Tissue samples then embedded in paraffin, sectioned (5 μm thickness), and stained for skin markers after re-hydration. […] Retinol at a active concentration of 0.05% was used a positive control. Retinol use at a 0.05% active concentration in the semi-occlusion patch vehicle formulation yielded a visual score of approximately 0.56 out of a 4 point scale in HE staining (measuring hematoxylin and eosin staining, an indication of viable epidermal thickness and health) with 63.6% of the subjects showing an improvement; a visual score of 0.6 out of a 4 point scale in M-TC staining (Masson's trichrome staining, assessing total mature fiber-forming collagen in the dermis—mainly Collagen I, […] and Collagen V) with 51.6% of the subjects showing an improvement; a visual score of 0.52 out of a 4 point scale for pro-Col (measuring new synthesis of Collagen I by skin fibroblasts in the dermis) with 51.6% of the subjects showing an improvement; and a visual score of 0.57 out of a 4 point scale for HA (measuring level of hyaluronic acid in both dermis and epidermis) with 50% of the subjects showing an improvement.

## CC1=C(/C=C/C(C)=C/C=C/C(C)=C/CO)C(C)(C)CCC1 [Retinol]
  subjects showing an improvement, HA: 50%
  subjects showing an improvement, HE staining: 63.6%
  subjects showing an improvement, M-TC staining: 51.6%
  subjects showing an improvement, pro-Col: 51.6%
Out of a 4 point scale
  visual score HA (hyaluronic acid in dermis and epidermis): 0.57
  visual score HE staining (viable epidermal thickness and health): approximately 0.56
  visual score M-TC staining (total mature fiber-forming collagen in dermis): 0.6
  visual score pro-Col (new synthesis of Collagen I): 0.52
